# Data as given in PubChem BioAssay (NCI).
#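 Cultured in 96-well plates, cells were exposed to test compound for 48 hours across five concentrations. Abbreviation: GI50, concentration required for 50% inhibition of growth. TGI marks complete inhibition of growth.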
# Tests used:
# Test in all cases: NCI-60 cell line screen, 48 h
# [1] = system: LOX IMVI melanoma
# [2] = system: NCI-H522 lung
# [3] = system: NCI-H226 lung
# [4] = system: HT29 colon
# [5] = system: 786-0 renal
# [6] = system: OVCAR-5 ovarian
# [7] = system: SK-MEL-28 melanoma
# [8] = system: HOP-92 NSCLC
# [9] = system: SN12C renal
# [10] = system: OVCAR-8 ovarian
# [11] = system: HCC-2998 colon
# [12] = system: OVCAR-3 ovarian
# [13] = system: SK-MEL-5 melanoma
# [14] = system: RPMI-8226 leukemia
# [15] = system: SF-268 CNS
# [16] = system: IGROV1 ovarian
# [17] = system: CAKI-1 renal
# [18] = system: UACC-257 melanoma
# [19] = system: MALME-3M melanoma
# [20] = system: HL-60(TB) leukemia
# [21] = system: ACHN renal
# [22] = system: KM12 colon
# [23] = system: EKVX NSCLC
# [24] = system: PC-3 prostate
# [25] = system: NCI/ADR-RES ovarian
# [26] = system: BT-549 breast
# [27] = system: HCT-116 colon
# [28] = system: A549 NSCLC
# [29] = system: SNB-19 CNS
# [30] = system: SK-MEL-2 melanoma
# [31] = system: SF-539 CNS
# [32] = system: T-47D breast
# [33] = system: M14 melanoma
# [34] = system: SF-295 CNS
# [35] = system: CCRF-CEM leukemia
# [36] = system: DU-145 prostate
# [37] = system: A498 renal
# [38] = system: NCI-H460 lung
# [39] = system: MDA-MB-231 breast
# [40] = system: UACC-62 melanoma
# [41] = system: MDA-MB-435
# [42] = system: U251 CNS
# [43] = system: NCI-H23 lung
# [44] = system: MCF7 breast
# [45] = system: RXF 393 renal
# [46] = system: SK-OV-3 ovarian
# [47] = system: MOLT-4 leukemia
# [48] = system: K-562 leukemia
# [49] = system: SW-620 colon
# [50] = system: COLO 205 colon
# [51] = system: HOP-62 NSCLC
# [52] = system: HCT-15 colon
# [53] = system: SNB-75 CNS
# [54] = system: TK-10 renal
# [55] = system: OVCAR-4 ovarian
# [56] = system: HS 578T breast
# [57] = system: UO-31 renal
# [58] = system: SR leukemia
smiles,measurement,setting,value
N=c1oc2cc(O)ccc2cc1C(=O)Nc1ccccn1,TGI,[1],> 100 µM
same,TGI,[2],13 µM
same,TGI,[3],> 100 µM
same,TGI,[4],> 100 µM
same,TGI,[5],39.3 µM
same,TGI,[6],> 100 µM
same,TGI,[7],> 100 µM
same,TGI,[8],> 100 µM
same,TGI,[9],> 100 µM
same,TGI,[10],> 100 µM
same,TGI,[11],> 100 µM
same,TGI,[12],> 100 µM
same,TGI,[13],> 100 µM
same,TGI,[14],> 100 µM
same,TGI,[15],> 100 µM
same,TGI,[16],> 100 µM
same,TGI,[17],> 100 µM
same,TGI,[18],> 100 µM
same,TGI,[19],> 100 µM
same,TGI,[20],> 100 µM
same,TGI,[21],> 100 µM
same,TGI,[22],> 100 µM
same,TGI,[23],> 100 µM
same,TGI,[24],> 100 µM
same,TGI,[25],> 100 µM
same,TGI,[26],> 100 µM
same,TGI,[27],> 100 µM
same,TGI,[28],> 100 µM
same,TGI,[29],> 100 µM
same,TGI,[30],97.2 µM
same,TGI,[31],> 100 µM
same,TGI,[32],> 100 µM
same,TGI,[33],> 100 µM
same,TGI,[34],> 100 µM
same,TGI,[35],94.2 µM
same,TGI,[36],61 µM
same,TGI,[37],98.2 µM
same,TGI,[38],> 100 µM
same,TGI,[39],> 100 µM
same,TGI,[40],> 100 µM
same,TGI,[41],> 100 µM
same,TGI,[42],> 100 µM
same,TGI,[43],> 100 µM
same,TGI,[44],> 100 µM
same,TGI,[45],99.7 µM
same,TGI,[46],> 100 µM
same,TGI,[47],> 100 µM
same,TGI,[48],> 100 µM
same,TGI,[49],> 100 µM
same,TGI,[50],32.8 µM
same,TGI,[51],> 100 µM
same,TGI,[52],> 100 µM
same,TGI,[53],> 100 µM
same,TGI,[54],> 100 µM
same,TGI,[55],> 100 µM
same,TGI,[56],> 100 µM
Cc1cn2c(/C=N/N=C(N)N)c(-c3cc([N+](=O)[O-])c(Cl)cc3Cl)nc2s1,TGI,[25],> 100 µM
same,TGI,[28],> 100 µM
same,TGI,[57],3.74 µM
same,TGI,[50],> 100 µM
Nc1[nH]nc(Nc2ccccc2)c1-c1nc2ccccc2s1,GI50,[1],1.59 µM
same,TGI,[1],2.97 µM
same,GI50,[2],1.58 µM
same,TGI,[2],3.63 µM
same,GI50,[3],3.71 µM
same,TGI,[3],17 µM
same,GI50,[4],3.39 µM
same,TGI,[4],11.5 µM
same,GI50,[5],1.34 µM
same,TGI,[5],3.08 µM
same,GI50,[6],2.26 µM
same,TGI,[6],8.77 µM
same,GI50,[7],2.06 µM
same,TGI,[7],4.29 µM
same,GI50,[8],1.4 µM
same,TGI,[8],3.77 µM
same,GI50,[9],1.58 µM
same,TGI,[9],3.24 µM
same,GI50,[10],2.36 µM
same,TGI,[10],5.98 µM
same,GI50,[11],1.88 µM
same,TGI,[11],4.21 µM
same,GI50,[12],1.7 µM
same,TGI,[12],3.76 µM
same,GI50,[13],4.66 µM
same,TGI,[13],15.8 µM
same,GI50,[14],2.24 µM
same,TGI,[14],6.65 µM
same,GI50,[15],2.36 µM
same,TGI,[15],8.83 µM
same,GI50,[16],2.58 µM
same,TGI,[16],8.88 µM
same,GI50,[19],2.79 µM
same,TGI,[19],8.58 µM
same,GI50,[20],2.61 µM
same,TGI,[20],7 µM
same,GI50,[21],2.08 µM
same,TGI,[21],6.27 µM
same,GI50,[22],1.61 µM
same,TGI,[22],3.6 µM
same,GI50,[23],1.26 µM
same,TGI,[23],4.28 µM
same,GI50,[24],1.58 µM
same,TGI,[24],3.39 µM
same,GI50,[25],2.11 µM
same,TGI,[25],6.64 µM
same,GI50,[26],1.52 µM
same,TGI,[26],3.34 µM
same,GI50,[27],1.29 µM
same,TGI,[27],2.71 µM
same,GI50,[28],2.96 µM
same,TGI,[28],11.9 µM
same,GI50,[29],2.08 µM
same,TGI,[29],4.56 µM
same,GI50,[30],2.77 µM
same,TGI,[30],8.9 µM
same,GI50,[31],1.68 µM
same,TGI,[31],3.34 µM
same,GI50,[32],2.2 µM
same,TGI,[32],11.2 µM
same,GI50,[33],1.55 µM
same,TGI,[33],3.58 µM
same,GI50,[34],1.56 µM
same,TGI,[34],3.27 µM
same,GI50,[35],0.911 µM
same,TGI,[35],9.61 µM
same,GI50,[57],1.33 µM
same,TGI,[57],7.16 µM
same,GI50,[36],3.02 µM
same,TGI,[36],11.6 µM
same,GI50,[37],1.69 µM
same,TGI,[37],4.01 µM
same,GI50,[38],1.94 µM
same,TGI,[38],4.17 µM
same,GI50,[39],1.59 µM
same,TGI,[39],3.75 µM
same,GI50,[40],1.4 µM
same,TGI,[40],2.96 µM
same,GI50,[41],1.94 µM
same,TGI,[41],4.89 µM
same,GI50,[42],2.26 µM
same,TGI,[42],5.5 µM
same,GI50,[43],1.73 µM
same,TGI,[43],5.04 µM
same,GI50,[44],2.26 µM
same,TGI,[44],8.68 µM
same,GI50,[46],4.63 µM
same,TGI,[46],15.7 µM
same,GI50,[47],0.683 µM
same,TGI,[47],7.81 µM
same,GI50,[48],1.88 µM
same,TGI,[48],7.81 µM
same,GI50,[49],2.58 µM
same,TGI,[49],7.29 µM
same,GI50,[50],1.89 µM
same,TGI,[50],3.92 µM
same,GI50,[51],2.08 µM
same,TGI,[51],5.87 µM
same,GI50,[52],1.18 µM
same,TGI,[52],3.04 µM
same,GI50,[53],2.39 µM
same,TGI,[53],10.9 µM
same,GI50,[58],1.84 µM
same,TGI,[58],8.02 µM
same,GI50,[54],3.02 µM
same,TGI,[54],9.1 µM
same,GI50,[55],2.19 µM
same,TGI,[55],11.8 µM
same,GI50,[56],2.53 µM
same,TGI,[56],9.86 µM
O=NNc1ccc(-c2ccccc2)cn1,TGI,[1],28.8 µM
same,TGI,[2],49.3 µM
same,TGI,[3],> 64.6 µM
same,TGI,[4],99.6 µM
same,TGI,[5],> 39.2 µM
same,TGI,[6],> 77.4 µM
same,TGI,[7],> 80.1 µM
same,TGI,[8],8.45 µM
same,TGI,[9],> 35.1 µM
same,TGI,[10],> 100 µM
same,TGI,[11],> 76.4 µM
same,TGI,[12],53.1 µM
same,TGI,[13],31.7 µM
same,TGI,[15],29.2 µM
same,TGI,[16],> 81.3 µM
same,TGI,[17],43.8 µM
same,TGI,[18],> 90.6 µM
same,TGI,[19],49.8 µM
same,TGI,[20],51.9 µM
same,TGI,[21],15 µM
same,TGI,[22],> 82.1 µM
same,TGI,[23],> 51.2 µM
same,TGI,[24],61.2 µM
same,TGI,[25],> 43.1 µM
same,TGI,[26],> 100 µM
same,TGI,[27],29.9 µM
same,TGI,[28],> 92.3 µM
same,TGI,[29],> 69 µM
same,TGI,[30],52 µM
same,TGI,[31],80.8 µM
same,TGI,[32],> 77.9 µM
same,TGI,[33],39.2 µM
same,TGI,[34],62.2 µM
same,TGI,[35],> 100 µM
same,TGI,[57],58 µM
same,TGI,[36],9.78 µM
same,TGI,[37],32.7 µM
same,TGI,[38],42.9 µM
same,TGI,[39],> 78.1 µM
same,TGI,[40],31.3 µM
same,TGI,[41],30.9 µM
same,TGI,[42],> 62.5 µM
same,TGI,[43],25.2 µM
same,TGI,[44],> 23.6 µM
same,TGI,[45],12.7 µM
same,TGI,[46],> 78.8 µM
same,TGI,[48],> 100 µM
same,TGI,[49],> 77 µM
same,TGI,[50],> 50.3 µM
same,TGI,[51],20.6 µM
same,TGI,[52],56.1 µM
same,TGI,[53],29.3 µM
same,TGI,[54],69 µM
same,TGI,[55],> 70.6 µM
same,TGI,[56],> 58.9 µM
